The values that follow come from paper PMC9636949 (Proceedings of the National Academy of Sciences of the …, 2022).

For test [1], the target named is T1, human α7-AChR (Homo sapiens, UniProt P36544). Conditions: pH 7.4; cited from earlier work.
In test [2] the target is T1, human α7-AChR. Type of test: binding. Conditions: read-out: Unlabeled-ligand half-competition concentration; pH 7.4.

T1 sequence (P36544 23-502): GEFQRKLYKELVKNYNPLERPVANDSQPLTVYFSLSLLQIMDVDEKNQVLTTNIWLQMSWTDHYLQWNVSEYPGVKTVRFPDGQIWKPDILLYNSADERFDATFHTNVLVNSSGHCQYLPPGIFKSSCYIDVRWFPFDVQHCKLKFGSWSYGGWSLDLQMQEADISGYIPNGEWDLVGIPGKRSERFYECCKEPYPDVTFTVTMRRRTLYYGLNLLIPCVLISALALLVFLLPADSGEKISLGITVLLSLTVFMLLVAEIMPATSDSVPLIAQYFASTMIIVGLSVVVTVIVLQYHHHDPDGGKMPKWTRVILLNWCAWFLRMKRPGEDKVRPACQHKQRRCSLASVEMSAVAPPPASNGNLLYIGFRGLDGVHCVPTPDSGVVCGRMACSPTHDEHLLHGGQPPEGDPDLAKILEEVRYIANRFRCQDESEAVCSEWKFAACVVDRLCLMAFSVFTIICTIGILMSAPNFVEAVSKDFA

Regarding `CN1CCC[C@H]1c1cccnc1` [Nicotine, nicotine], the “Unlabeled-ligand nH (Hill coefficient)” value at human α7-AChR [1] was 1.41 ± 0.06.
On to `C[N+](C)(C)C` [TMA, tetramethylammonium], for which the IC50 on human α7-AChR [2] came to 11.4 ± 1.33 µM.
Same read-out and setting: under `CC[N+](C)(C)C` [ETMA] stands 15.6 ± 1.09 µM.
For the molecule `C[N+](C)(C)CCO` [Choline, choline], the “Unlabeled-ligand nH (Hill coefficient)” value at human α7-AChR [1] was 1.28 ± 0.08.
